Source: patent EP4670722A1, “PROPHYLACTIC OR AMELIORATING AGENT FOR CELL AGING” (Kyowa Pharma Chemical Co., Ltd., priority 2023, dated 2024)

How the values were obtained:
Type in all cases: cell-based
[1] = tested on: Human normal epidermal keratinocytes (HaCaT); assay: Cell proliferation rate (MTT) of normal epidermal keratinocytes; settings: 50 µg/mL to 200 µg/mL in medium, 2 days, activity increased as content increased, Fig. 1
Procedure: Human normal epidermal keratinocytes (HaCaT) were cultured using DMEM containing 10% FBS. The cultured cells were collected by trypsin treatment. The collected cells were seeded in a 96-well microplate at a concentration of 5.0 x 10^3 cells/well and cultured overnight. Thereafter, the cells were cultured for 2 days at 37°C in a medium for epidermal keratinocyte proliferation (FBS-free) to which a test sample (sucrose or 2'-fucosyllactose) was added to a concentration of 50 µg/mL, 100 µg/mL, or 200 µg/mL. The medium was replaced with FBS-free DMEM medium, then 10 µL/well of 5 mg/mL 3-[4,5-dimethylthiazol-2-yl]-2,5-diphenyltetrazolium bromide (MTT) was added, and the cells were cultured at 37°C for 3 hours. After completion of culture, formazan produced in the cells was extracted with 100 µL of dimethyl sulfoxide (DMSO). After extraction, the absorbance of formazan (As, 492 nm) was measured with a microplate reader. The reference wavelength was set to 620 nm.
Human normal epidermal keratinocytes were cultured and the absorbance of formazan was measured in the same manner as in Example 1-1, except that no test sample was added. The obtained absorbance was designated as Ab, and the cell proliferation rate represented by the following formula (1) was determined. Cell proliferation rate(%) = 100 x As/AB [formula]

[2] = tested on: human senescent dermal fibroblasts (NB1RGB) with a PDL of 50 or more; assay: Cell proliferation rate (MTT) of senescent dermal fibroblasts; settings: 50 µg/mL to 200 µg/mL, 2 days, suppression increased as content increased, Fig. 3
Procedure: Human normal dermal fibroblasts (NB1RGB) with a PDL of 30 or less and human senescent dermal fibroblasts (NB1RGB) with a PDL of 50 or more were each cultured using DMEM containing 10% FBS. The cultured cells were collected by trypsin treatment. The collected cells were seeded in a 96-well microplate at a concentration of 5.0 x 10^3 cells/well and cultured overnight. Thereafter, the cells were cultured for 2 days at 37°C in a medium for fibroblast proliferation (FBS-free) to which a test sample (sucrose or 2'-fucosyllactose) was added to a concentration of 50 µg/mL, 100 µg/mL,or 200 µg/mL. The medium was replaced with FBS-free DMEM medium, then 10 µL/well of 5 mg/mL 3-[4,5-dimethylthiazol-2-yl]-2,5-diphenyltetrazolium bromide (MTT) was added, and the cells were cultured at 37°C for 3 hours. […] After extraction, the absorbance of formazan (As, 492 nm) was measured with a microplate reader. […]
Human normal dermal fibroblasts with a PDL of 30 or less and human senescent fibroblasts with a PDL of 50 or more were each cultured and the absorbance of formazan was measured in the same manner as in Example 2-1, except that no test sample was added. The obtained absorbance was designated as Ab, and the cell proliferation rate represented by the above formula (1) was determined for each case of PDL of 30 or less and PDL of 50 or more.

GLS1 [3] = assay: GLS1 expression analysis (ELISA) in BV2; settings: mouse microglial cells (BV2), at least 200 µg/mL or more, 24 hours; effect increased from 200 to 1000 µg/mL; Fig. 12
Procedure: Mouse microglial cells (BV2) were cultured in glutamine-containing DMEM. The cultured cells were collected by trypsin treatment. The collected cells were seeded in a 6-well plate at a cell density of 4 x 10^5 cells/well and cultured for 24 hours in a 37°C, 5% CO2 incubator. After culturing, glutamine-free DMEM containing the test sample (2'-FL and lactose) at 50 µg/mL, 200 µg/mL, or 1000 µg/mL was added, and cultured for 24 hours in a 37°C, 5% CO2 incubator. The culture supernatant was removed, the cells were washed twice with PBS, and 0.20 mL of RIPA buffer was added to extract total protein. Protein in each protein extract was quantified by the Bradford assay.
(§1) Protein extracts were collected in the same manner as in [Example 10-1 B. Human gastric undifferentiated carcinoma cells (KKLS)], [Example 10-1 C. Mouse microglial cells (BV2)], [Example 10-1 D. Human gingival fibroblasts (Gin-1)], and [Example 10-1 E. Human umbilical vein endothelial cells (HUVEC)], respectively, except that a medium same as the above-mentioned medium but not containing the test sample was used instead of the medium containing the test sample, and protein in each protein extract was quantified by the Bradford assay.
(§2) An ELISA method was performed using an antibody against GLS1 to measure the amount of GLS1 in the samples. […]

GLS1 [4] = assay: GLS1 expression analysis (ELISA) in Gin-1; settings: human gingival fibroblasts (Gin-1), 50 µg/mL to 1000 µg/mL, 24 hours; effect increased as content increased; Fig. 12
Procedure: Human gingival fibroblasts (Gin-1) were cultured in DMEM containing 10% FBS. The cultured cells were collected by trypsin treatment. Cells in a state where GLS1 was expressed without addition of the test sample were used for the test. Cells collected by trypsin treatment were seeded in a 6-well plate, and when they reached 80% confluence, DMEM containing the test sample (2'-FL and lactose) at 50 µg/mL, 200 µg/mL, or 1000 µg/mL was added, and cultured for 24 hours in a 37°C, 5% CO2 incubator. The culture supernatant was removed, the cells were washed twice with PBS, and 0.20 mL of RIPA buffer was added to extract total protein. Protein in each protein extract was quantified by the Bradford assay.
as §1, §2

C[C@@H]1O[C@@H](O[C@H]2[C@H](O[C@H]3[C@H](O)[C@@H](O)C(O)O[C@@H]3CO)O[C@H](CO)[C@H](O)[C@@H]2O)[C@@H](O)[C@H](O)[C@@H]1O (stereo partly shown) [2'-FL, 2'-fucosyllactose]
proliferation activity of normal epidermal cells (cell proliferation rate) [1]: improved the proliferation activity of normal epidermal cells
proliferation of senescent fibroblasts (cell proliferation rate) [2]: suppressed the proliferation of senescent fibroblasts
GLS1 expression (GLS1 [3]): suppressed GLS1 expression
GLS1 expression (GLS1 [4]): suppressed GLS1 expression
